In US7008636B2, “2,3,5-substituted biphenyls useful in the treatment of insulin resistance and hyperglycemia” (Wyeth, priority 1998, dated 2006) one finds IC50 and melting point data, which are given here for 26 compounds.

In general, IC50 refers to the concentration that inhibits the measured activity by half. The term melting point denotes the temperature of the solid-liquid transition.

Data set [1] concerns the target T1, recombinant, human protein tyrosine phosphatase (PTP) 1B (hPTP1B) (Homo sapiens, UniProt P18031).
T1 construct: made in house
T1 sequence (P18031 1-435): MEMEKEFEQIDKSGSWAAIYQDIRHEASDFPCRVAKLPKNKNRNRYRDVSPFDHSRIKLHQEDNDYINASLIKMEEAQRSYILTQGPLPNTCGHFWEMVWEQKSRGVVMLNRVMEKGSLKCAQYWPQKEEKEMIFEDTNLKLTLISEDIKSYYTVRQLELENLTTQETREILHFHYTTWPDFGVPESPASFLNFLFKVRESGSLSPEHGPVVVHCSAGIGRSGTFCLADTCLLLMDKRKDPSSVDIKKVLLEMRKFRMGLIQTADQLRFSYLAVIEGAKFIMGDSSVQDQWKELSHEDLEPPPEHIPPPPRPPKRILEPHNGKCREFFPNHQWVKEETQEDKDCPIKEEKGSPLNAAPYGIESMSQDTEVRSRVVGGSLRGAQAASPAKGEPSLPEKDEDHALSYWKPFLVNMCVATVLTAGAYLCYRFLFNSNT
As to the kind of experiment: Inhibition of tri-phosphorylated insulin receptor dodecaphosphopeptide dephosphorylation by hPTP1B. Format: biochemical. Conditions: 50 μM IR triphosphopeptide substrate, 5 min preincubation and 5 min reaction at 37° C., malachite green-ammonium molybdate phosphate detection.

Compound `CCCCCCCCCCCCNC(=O)c1cc(-c2ccc(OC)cc2)c(OCC(=O)O)c(-c2cccc(Cl)c2)c1` [Example 10, (3-Chloro-5′-dodecylcarbamoyl-4″-methoxy-[1,1°;3′]terphenyl-2′-yloxy)-acetic acid] displayed a melting point of 114 to 117 °C. Also, the concentration for half-maximal inhibition (IC50) in data set [1] was determined as 102 nM.

Regarding `CCCCCCCCCCCCNC(=O)c1cc(-c2cccc(OC)c2)c(OCC(=O)O)c(-c2cccc(OC)c2)c1` [Example 11, (5′-Dodecylcarbamoyl-3,3″-dimethoxy-[1,1′;3′1″]terphenyl-2′-yloxy)-acetic acid], the melting point lay within 57 to 58 °C. The half-inhibitory concentration (IC50) in data set [1] was determined as 115 nM.

`CC(C)(C)c1ccc(COCCCCCCNC(=O)c2cc(-c3cccc(C(F)(F)F)c3)c(OCC(=O)O)c(-c3cccc(C(F)(F)F)c3)c2)cc1` [Example 13, {5′-[6-(4-tert-Butyl-benzyloxy)-hexylcarbamoyl]-3,3″-bis-trifluoromethyl-[1,1′;3′,1″]terphenyl-2′-yloxy}-acetic acid] registered a melting point of 156 to 158 °C. The IC50 in data set [1] turned out to be 320 nM.

`O=C(O)COc1c(-c2cccc(C(F)(F)F)c2)cc(C(=O)NCCCCCCOCc2ccc(OCc3ccccc3)cc2)cc1-c1cccc(C(F)(F)F)c1` [Example 14, {5′-[6-(4-Benzyloxy-benzyloxy)-hexylcarbamoyl]-3,3″-bis-trifluoromethyl-[1,1′;3′1″]terphenyl-2′-yloxy}-acetic acid]: the melting point was 127 to 130 °C. The concentration for half-maximal inhibition (IC50) in data set [1] was determined as 366 nM.

Compound `COc1ccc(-c2cc(C(=O)NCCCCCCCCc3ccccc3)cc(-c3cccc(Cl)c3)c2OCC(=O)O)cc1` [Example 15, [3″-Chloro-4-methoxy-5′-(8-phenyl-octylcarbamoyl)-[1,1′;3′,1″]terphenyl-2′-yloxy]-acetic acid] displayed a melting point of 79.2 to 80.5 °C. Also, in data set [1], the IC50 turned out to be 186 nM.

In turn, `COc1ccc(-c2cc(C(=O)N(C)CCCCCCCCc3ccccc3)cc(-c3cccc(Cl)c3)c2OCC(=O)O)cc1` [Example 16, {3″-Chloro-4-methoxy-5′-[methyl-(8-phenyl-octyl)-carbamoyl]-[1,1′;3′, 1″]terphenyl-2′-yloxy}-acetic acid] displayed a melting point of 66.8 to 67.5 °C. Also, the IC50 in data set [1] is 343 nM.

In turn, `COc1cccc(-c2cc(C(=O)NCCCCCCCCc3ccccc3)cc(-c3cccc(OC)c3OCC(=O)O)c2)c1` [Example 17, [3,3″-Dimethoxy-5′-(8-phenyl-octylcarbamoyl)-[1,1′;3′,1″]terphenyl-2-yloxy]-acetic acid] registered a melting point of 67.3 to 68.7 °C. In addition, in data set [1], the IC50 came out at 284 nM.

On to `O=C(O)COCCOc1c(-c2cccc(C(F)(F)F)c2)cc(C(=O)NCCCCCCc2ccccc2)cc1-c1cccc(C(F)(F)F)c1` [Example 18, {2-[5′-(6-Phenyl-hexylcarbamoyl)-3,3″-bis-trifluoromethyl-[1,1′;3′,1″]terphenyl-2′-yloxy]-ethoxy}acetic acid], for which the melting point was in the range of 74.7 to 75.9 °C. For the same compound, the IC50 in data set [1] was 710 nM.

`O=C(O)COc1c(-c2cccc(C(F)(F)F)c2)cc(C(=O)NCCCCCCOCc2ccc(F)cc2F)cc1-c1cccc(C(F)(F)F)c1` [Example 19, {5′-[6-(2,4-Difluoro-benzyloxy)-hexylcarbamoyl]-3,3″-bis-trifluoromethyl-[1,1′;3′1″]terphenyl-2′yloxy}-acetic acid] gave a melting point of 149.9 to 150.6 °C. The half-inhibitory concentration (IC50) in data set [1] was 728 nM.

Turning to `O=C(O)COc1c(-c2cccc(C(F)(F)F)c2)cc(C(=O)NCCCCCCOCc2ccc(-c3ccccc3)cc2)cc1-c1cccc(C(F)(F)F)c1` [Example 20, {5′-[6-(Biphenyl-4-ylmethoxy)-hexylcarbamoyl]-3,3″-bis-trifluoromethyl-[1,1′;3′,1″]terphenyl-2′-yloxy}-acetic acid], the melting point was in the range of 133.2 to 133.9 °C. The IC50 in data set [1] amounted to 379 nM.

The compound `COc1cccc(-c2cccc(-c3cc(OC)cc(C(=O)N(C)CCCCCCCCc4ccccc4)c3)c2OCC(=O)O)c1` [Example 21, {3,3″-Dimethoxy-5″-[methyl-(8-phenyl-octyl)-carbamoyl]-[1,1′;3′,1″]terphenyl-2′-yloxy}-acetic acid] registered a melting point of 148.9 to 149.7 °C. Further, in data set [1], the half-inhibitory concentration (IC50) was 880 nM.

As to `O=C(O)COCCOc1c(-c2cc(Cl)cc(Cl)c2)cc(C(=O)NCCCCCCc2ccccc2)cc1-c1cc(Cl)cc(Cl)c1` [Example 22], the melting point was in the range of 78.5 to 79.9 °C. The IC50 in data set [1] amounted to 250 nM.

In the case of `COc1ccc(-c2cc(C(=O)NCCCCCCCCc3ccccc3)cc(-c3ccc(OC)cc3)c2OCC(=O)[O-])cc1.[Na+]` [Example 23, [4,4″-Dimethoxy-5′-(8-phenyl-octylcarbamoyl)-[1,1′;3′,1″]terphenyl-2′yloxy]acetic acid sodium salt], the melting point was greater than 95 °C. The IC50 in data set [1] was found to be 365 nM.

`Cc1cc(COCCCCCCNC(=O)c2cc(-c3ccc(F)c(Cl)c3)c(OCC(=O)O)c(-c3ccc(F)c(Cl)c3)c2)c(C)o1` [Example 26, {3,3″-Dichloro-5′-(6-(2,5-dimethyl-furan-3-ylmethoxy)-hexylcarbamoyl]-4-4″-difluoro-[1,1′;3′,1″]terphenyl-2′-yloxy}-acetic acid] came in with a melting point of 90 to 91.2 °C. Also, the IC50 in data set [1] is 207 nM.

With `Cc1cc(COCCCCCCNC(=O)c2cc(-c3cccc(C(F)(F)F)c3)c(OCC(=O)O)c(-c3cccc(C(F)(F)F)c3)c2)c(C)o1` [Example 30, {5′-[6-(2,5-Dimethyl-furan-3-ylmethoxy)-hexylcarbamoyl]-3,3″-bis-trifluoromethyl-[1,1′;3′,1″]terphenyl-2′-yloxy}-acetic acid], the melting point is 107.9 to 108.5 °C. The IC50 in data set [1] came out at 220 nM.

As for `CCCCCCCCCCCCCCCCNc1c(Nc2cc(-c3ccccc3)c(OCC(=O)O)c(-c3ccccc3)c2)c(=O)c1=O` [Example 32, [5′-(2-Hexadecylamino-3,4-dioxo-cyclobut-1-enylamino)-[1,1′;3′,1″]terphenyl-2′-yloxy]-acetic acid], the melting point is 132.5 to 133.7 °C. Also, the half-maximal inhibitory concentration (IC50) in data set [1] turned out to be 17 nM.

In turn, `CCCCCCCCCCCCCCCCCCOc1cc(-c2ccccc2)c(OCC(=O)O)c(-c2ccccc2)c1` [Example 36, (5′-Octadecyloxy-[1,1′;3′,1″]terphenyl-2′-yloxy)-acetic acid] returned a melting point of 90.5 to 92 °C. The IC50 in data set [1] is 24 nM.

Regarding `O=C(O)COc1c(-c2ccccc2)cc(-c2c3ccccc3cc3sc4ccccc4c23)cc1-c1ccccc1` [Example 37, (5′-Benzo[b]naphtho[2,3-d]thiophen-11-yl-[1,1′;3′,1″]terphenyl-2′-yloxy)-acetic acid], the melting point was > 136 °C (dec.). The IC50 in data set [1] worked out at 118 nM.

Regarding `CCCCCCCCOc1cc(-c2cccc(Cl)c2)c(OCC(=O)O)c(-c2cccc(Cl)c2)c1` [Example 46, (3,3″-Dichloro-5′-octyloxy-[1,1′;3′,1″]terphenyl-2′-yloxy)acetic acid], the melting point fell in the range of 113 to 115.5 °C. Also, in data set [1], the half-inhibitory concentration (IC50) is 121 nM.

As to `CCCCCCCCOc1cc(-c2cccc(NC(C)=O)c2)c(OCC(=O)O)c(-c2cccc(NC(C)=O)c2)c1` [Example 47, (3,3″-Bis-acetylamino-5′-octyloxy-[1,1′;3′,1″]terphenyl-2′-yloxy)acetic acid], the melting point was > 100 °C (dec.). Also, the half-maximal inhibitory concentration (IC50) in data set [1] came out at 300 nM.

Compound `CCCCCCCCOc1cc(-c2cccc(C(F)(F)F)c2)c(OCC(=O)O)c(-c2cccc(C(F)(F)F)c2)c1` [Example 48, (5′-Octyloxy-3,3″-bis-trifluoromethyl-[1,1′;3′,1″]terphenyl-2′-yloxy)acetic acid] yielded a melting point of 75 to 77 °C. For the same compound, the IC50 in data set [1] was determined as 145 nM.

On to `CCCCCCCCOc1cc(-c2cccc([N+](=O)[O-])c2)c(OCC(=O)O)c(-c2cccc([N+](=O)[O-])c2)c1` [Example 49, (3,3″-Dinitro-5′-octyloxy-[1,1′;3′,1″]terphenyl-2′-yloxy)acetic acid], for which the melting point is 129 to 132 °C. Moreover, the IC50 in data set [1] turned out to be 400 nM.

On to `O=C(O)COc1c(-c2cccc(Cl)c2)cc(C(=O)NCCCCCCc2ccccc2)cc1-c1cccc(Cl)c1` [Example 80, [3,3″-Dichloro-5′-(6-phenyl-hexylcarbamoyl)-[1,1′;3′,1″]terphenyl-2′-yloxy]acetic acid], for which the melting point was 178 to 181 °C. Moreover, in data set [1], the IC50 came to 600 nM.

Take `COc1ccc(-c2cc(C(=O)N(C)CCCCCCCCc3ccccc3)cc(-c3cccc(C(F)(F)F)c3)c2OCC(=O)O)cc1` [Example 81, {4″-Methoxy-5′-[methyl-(8-phenyl-octyl)-carbamoyl]-3-trifluoromethyl-[1,1′;3′1″]-terphenyl-2′-yloxy}acetic acid]: the melting point was > 39 °C (dec.). Further, the IC50 in data set [1] was 330 nM.

Regarding `CN(CCCCCCCCc1ccccc1)C(=O)c1cc(-c2cccc(Cl)c2)c(OCC(=O)O)c(-c2cccc(Cl)c2)c1` [Example 82, {3,3″-Dichloro-5′-[methyl-(8-phenyl-octyl)-carbamoyl]-[1,1′;3′1″]terphenyl-2′-yloxy}acetic acid], the melting point is > 44 °C (dec.). For the same compound, the 50% inhibitory concentration (IC50) in data set [1] came to 179 nM.

Regarding `O=C(O)COc1c(-c2cccc(F)c2)cc(C(=O)NCCCCCCCCc2ccccc2)cc1-c1cccc(F)c1` [Example 83, [3,3″-Difluoro-5′-(8-phenyl-octylcarbamoyl)-[1,1′;3′,1″]terphenyl-2′-yloxy]acetic acid], the melting point is > 58 °C (dec.). In addition, the concentration for half-maximal inhibition (IC50) in data set [1] was 536 nM.
